The assay deals with CazM (Chaetomium globosum, UniProt A0A0K0MCJ4). Put plainly: HPLC / LC-MS product analysis. The conditions noted are these: 2 mM 11-SNAC, malonyl-CoA, SAM; pH 7.4, room temperature, 8 h; reductive release. It is filed as biochemical.

Consider one compound from paper PMC4922798 (Journal of the American Chemical Society, 2015).

CazM, sequence (A0A0K0MCJ4 whole entry): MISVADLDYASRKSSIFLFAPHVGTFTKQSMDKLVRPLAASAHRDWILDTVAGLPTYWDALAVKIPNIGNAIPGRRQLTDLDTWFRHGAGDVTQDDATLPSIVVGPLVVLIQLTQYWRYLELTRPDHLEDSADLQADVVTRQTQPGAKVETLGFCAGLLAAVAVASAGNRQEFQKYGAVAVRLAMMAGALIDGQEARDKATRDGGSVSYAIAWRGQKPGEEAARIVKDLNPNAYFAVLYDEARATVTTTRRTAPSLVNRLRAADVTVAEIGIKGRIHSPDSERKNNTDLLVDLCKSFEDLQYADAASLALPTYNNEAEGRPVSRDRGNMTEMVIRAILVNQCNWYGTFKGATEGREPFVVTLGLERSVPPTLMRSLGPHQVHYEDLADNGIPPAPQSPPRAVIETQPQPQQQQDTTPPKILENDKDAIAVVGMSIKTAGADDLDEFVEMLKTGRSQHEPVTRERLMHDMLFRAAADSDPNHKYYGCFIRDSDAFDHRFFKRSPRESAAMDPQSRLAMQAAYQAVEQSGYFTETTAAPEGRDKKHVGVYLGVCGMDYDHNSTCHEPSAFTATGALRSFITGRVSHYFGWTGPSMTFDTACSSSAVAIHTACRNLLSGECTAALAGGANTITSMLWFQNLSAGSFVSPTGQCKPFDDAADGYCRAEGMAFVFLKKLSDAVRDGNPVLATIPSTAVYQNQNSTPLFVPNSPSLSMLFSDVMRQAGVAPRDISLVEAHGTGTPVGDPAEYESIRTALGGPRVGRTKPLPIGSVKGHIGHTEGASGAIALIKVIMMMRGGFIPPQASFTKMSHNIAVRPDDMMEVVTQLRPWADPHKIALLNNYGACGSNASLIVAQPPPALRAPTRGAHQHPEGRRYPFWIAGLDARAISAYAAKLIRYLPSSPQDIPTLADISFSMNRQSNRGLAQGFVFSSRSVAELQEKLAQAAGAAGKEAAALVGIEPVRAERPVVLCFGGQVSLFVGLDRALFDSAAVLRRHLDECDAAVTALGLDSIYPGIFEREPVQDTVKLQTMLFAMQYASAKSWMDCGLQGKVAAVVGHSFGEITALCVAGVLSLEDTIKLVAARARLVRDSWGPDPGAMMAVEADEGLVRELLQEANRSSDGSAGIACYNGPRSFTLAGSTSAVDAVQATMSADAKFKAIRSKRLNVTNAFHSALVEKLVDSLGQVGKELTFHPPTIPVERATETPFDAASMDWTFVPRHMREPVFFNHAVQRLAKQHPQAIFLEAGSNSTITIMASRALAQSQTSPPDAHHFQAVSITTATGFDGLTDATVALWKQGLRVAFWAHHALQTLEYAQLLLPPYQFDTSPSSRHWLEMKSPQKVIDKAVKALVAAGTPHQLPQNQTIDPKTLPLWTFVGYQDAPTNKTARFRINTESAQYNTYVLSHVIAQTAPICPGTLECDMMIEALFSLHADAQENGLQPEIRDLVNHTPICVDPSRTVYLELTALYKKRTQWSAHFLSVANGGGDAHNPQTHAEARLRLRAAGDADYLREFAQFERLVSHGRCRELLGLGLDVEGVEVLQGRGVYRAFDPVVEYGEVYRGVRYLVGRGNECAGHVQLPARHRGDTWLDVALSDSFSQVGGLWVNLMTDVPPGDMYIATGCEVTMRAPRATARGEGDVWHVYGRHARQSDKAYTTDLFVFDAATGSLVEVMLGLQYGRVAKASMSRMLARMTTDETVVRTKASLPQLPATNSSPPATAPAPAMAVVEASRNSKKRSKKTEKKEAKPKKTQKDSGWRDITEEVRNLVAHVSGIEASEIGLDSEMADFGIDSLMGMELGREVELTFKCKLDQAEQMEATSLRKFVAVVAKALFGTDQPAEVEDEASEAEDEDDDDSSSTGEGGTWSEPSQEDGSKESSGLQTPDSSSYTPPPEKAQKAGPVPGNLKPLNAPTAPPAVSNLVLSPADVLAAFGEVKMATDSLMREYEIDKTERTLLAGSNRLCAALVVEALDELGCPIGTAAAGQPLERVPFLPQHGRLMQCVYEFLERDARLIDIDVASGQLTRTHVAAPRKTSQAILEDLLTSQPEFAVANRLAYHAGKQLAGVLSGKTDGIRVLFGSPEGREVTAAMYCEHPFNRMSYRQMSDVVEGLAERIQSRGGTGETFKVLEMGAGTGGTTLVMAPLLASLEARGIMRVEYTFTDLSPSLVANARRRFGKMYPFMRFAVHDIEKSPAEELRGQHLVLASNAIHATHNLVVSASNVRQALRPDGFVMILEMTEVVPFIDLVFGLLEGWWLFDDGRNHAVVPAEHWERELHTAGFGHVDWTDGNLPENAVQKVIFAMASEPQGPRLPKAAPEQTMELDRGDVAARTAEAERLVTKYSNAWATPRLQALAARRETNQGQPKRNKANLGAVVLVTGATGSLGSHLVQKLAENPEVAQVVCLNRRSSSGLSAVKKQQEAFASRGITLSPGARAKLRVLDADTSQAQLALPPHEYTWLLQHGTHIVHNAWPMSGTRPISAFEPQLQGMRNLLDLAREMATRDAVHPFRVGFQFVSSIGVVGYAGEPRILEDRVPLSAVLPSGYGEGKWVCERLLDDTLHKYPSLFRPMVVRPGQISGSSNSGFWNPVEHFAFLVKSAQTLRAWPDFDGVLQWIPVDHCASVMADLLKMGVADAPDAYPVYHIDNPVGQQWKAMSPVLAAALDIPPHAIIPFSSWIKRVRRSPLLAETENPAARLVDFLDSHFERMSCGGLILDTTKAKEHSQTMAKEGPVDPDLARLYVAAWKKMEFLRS

With `NC(=O)C1=CN([C@@H]2O[C@H](COP(=O)(O)OP(=O)(O)OC[C@H]3O[C@@H](n4cnc5c(N)ncnc54)[C@H](OP(=O)(O)O)[C@@H]3O)[C@@H](O)[C@H]2O)C=CC1` [NADPH], the “HPLC / LC-MS product analysis” value is “CazM requires NADPH for the reductive offloading of its polyketide product”.
